{"source": "patent US20240050421A1", "about": "“PHARMACEUTICAL FORMULATIONS OF A PHENOLIC TRPV1 AGONIST PRODRUG” (Concentric Analgesics, Inc., priority 2020, published 2024)", "assay": "Water solubility / hydrophilicity compared with capsaicin", "format": "physicochemical", "details": "general statement, no method or figures given"}
{"smiles": "CNCC1CCCCN1C(=O)Oc1ccc(CNC(=O)CCCC/C=C/C(C)C)cc1OC.Cl", "note": "(stereo not shown) [Compound 1, (E)-2-methoxy-4-((8-methylnon-6-enamido)methyl)phenyl 2-((methylamino)methyl)piperidine-1-carboxylate]", "values": [{"measurement": "hydrophilicity/water solubility", "value": "significantly higher hydrophilicity/water solubility than capsaicin"}]}
